Results on eight compounds are retold here after patent publication US20020004958A1, “Dyeing substrates” (Novozymes A/S, priority 1996, published 2002).

SMILES strings stand for the structures. “Also recorded” adds a separate entry of the source.

The target in series [1] is T1, horseradish peroxidase type VI-A (Armoracia rusticana, UniProt P00433).
T1 construct: purchased Sigma 6782
T1 sequence (P00433 31-338 limits assumed): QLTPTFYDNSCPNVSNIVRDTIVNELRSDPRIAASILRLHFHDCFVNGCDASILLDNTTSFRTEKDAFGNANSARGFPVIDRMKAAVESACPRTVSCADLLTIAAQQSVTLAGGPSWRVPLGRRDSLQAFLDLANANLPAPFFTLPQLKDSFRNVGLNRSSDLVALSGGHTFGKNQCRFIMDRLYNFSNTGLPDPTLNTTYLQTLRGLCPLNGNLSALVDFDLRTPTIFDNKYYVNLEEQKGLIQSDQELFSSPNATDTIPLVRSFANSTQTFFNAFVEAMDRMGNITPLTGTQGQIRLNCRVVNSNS
Kind of series: Peroxidase-catalysed oxidation of substrates, initial velocity (absorbency 492 nm) vs substrate concentration, Michaelis/Menten. It counts as biochemical. Particulars: for Kkat: Vmax/[E], worked out from peroxidase of 50,000 g/mol; for Properties as substrate for peroxidase (in words): peroxidase/hydrogen peroxide system, compared with OPD or 3,4-DABA. From the text:
Absorbancy at 492 nm was used as a measure of the course of the reaction. The initial velocity was taken to be the absorbancy at 492 nm two minutes after the addition of the peroxidase to a mixture of the substrate and hydrogen peroxide in a buffer with a pH of 5.0. The wavelength of 492 nm was chosen because it is employed in the standard assay procedures for OPD.
By varying the concentration of the substrate and at the same time measuring the initial velocity of the reaction it is posible to apply the Michaelis/Menten equation to the system.
Under ideal conditions the values determined experimentally will approach the value of the expression: [formula]
where [S] is the concentration of the substrate, Vmax is the maximum initial […] which is reached in the particular assay. Km is defined as the concentration of the substrate at Vmax/2. A small Km value will therefore be characteristic for an enzyme system where a low concentration of the substrates produces saturation of the enzyme.
The expression implies that the initial velocity will increase with increasing concentration of the substrate, but the curve for the velocity will flatten out and approach Vmax for very high concentrations of the substrate. In actual fact the parameter Kkat be calculated as Vmax/[E] where [E] is the molar concentration of the enzyme in the reaction. Kkat is the same as min^−1 and reflects the activity of the enzyme in a saturated solution upon the substrate.
The following solutions were prepared for use in the enzyme assay:
A 50 mM phosphate/citrate buffer with a pH of 5.0 was made by mixing a 50 mm Na2HPO4 solution and a 50 mm solution of citric acid. The pH was measured while mixing was in progress.
15 μl of a 30% solution of hydrogen peroxide (PERHYDROL, Merck) was thinned down with 25 ml of the assay buffer.
The stabilizing buffer for peroxidase, i.e. a buffer which stabilizes the enzyme, was prepared according to the method of Olsen and Little (1983). A 0.1M Na-acetate buffer, which was 0.5M in terms of CaCl2 was adjusted to pH 5.6.
10 mg of horseradish peroxidase type VI-A (Sigma no. 6782) were dissolved in 10 ml of the stabilizing buffer. This was stored at −15° C.
The standard peroxidase solution was diluted to 1:1000 with the 10 ml assay-buffer solution in 10 μl standard solution.
0.5 mmol of each substrate in 5 ml DMF.
The standard solutions were diluted by 1:10 with the assay buffer. Before being used the substrate solutions were diluted by 1:10. 0.5 ml of the standard solution was thinned down with 4.5 ml of the assay buffer.
The concentration of the peroxidase was held constant at 50 ng/ml during the whole investigation. By using the volume of substrate and the volumes of 10 vol-% DMF solution as given in table 4 it was possible to employ a constant reaction volume and a constant concentration of DMF. For all measurements there was used 1550 μl buffer and 50 μl bench solution of peroxidase. The total volume is then as follows: 300 μI DMF and substrate solution, 1550 μl buffer, […] bench solution of peroxidase and 50 μl hydrogen peroxide solution. That is 2000 μl in total.
The results of the measurements of initial velocities are stated in units of absorbency and not in molar units. In order to be able to measure the “true” velocity of reaction it is necessary to isolate the oxidation product for each substrate and determine the molar extinction coefficient. The value of Kkat is worked out from 1 mole of peroxidase of 50,000 g/mol.

For series [2] the following is noted: background statement; cited from earlier work.
Series [3] relates to Salmonella tphimurium TA 98. Put plainly: Ames test for mutagenicity, with and without S9-mix. It counts as cell-based. Particulars: 100 μl of 50, 100 and 200 mM solutions in DMSO, with and without rat liver S9-mix. On the procedure: The Ames test (Maron and Ames (1983)) was used to determine the mutagenic properties of the compounds. Nutrient media were prepared in the manner described by Venitt and Parry (1984). To 3×2 ml melted agar at 45° C. were added 100 μl of 50, 100 and 200 mM of solutions of the compounds dissolved in DMSO. By means of a pipette 100 μl of a well-grown culture of Salmonella tphimurium TA 98 (BIO-TEST gl. skolevej 47, 6731 Tiaereborg) were added to the same test-tube. The bacteria contain a frameshift mutation on the histinol-dehydrogenase gene and require histidin in order to grow. Mutagenic aromatic amines can cause the bacteria to mutate to His+ and they can then grow on the nutrient medium. The number of colonies after incubation therefore give a quantitative measure of the ability of the added compound to cause mutation. In all trials spontaneous mutations take place in the absence of a mutagen. These provide a measure of “background” mutation.
All trials were therefore carried out both with and without the addition of “S9-mix” from the livers of rats, this contains the P450 system. 0.5 ml of […] was added to each test-tube. The criteria for mutation are that increasing concentrations of the compound under investigation give a marked increase in the number of His+ mutants.
Background: In the Ames test, an excess of revertant colonies over the control signals mutagenicity.

In the case of `Nc1ccc(C(=O)O)cc1N` [3,4-DABA, 3,4-diamino benzoic acid], in series [1], the Kkat is recorded as 2.0 * 10^8 1*mol^−1*min^−1 and the “Properties as substrate for peroxidase (in words)” value (“Properties as substrate” for short) is “considerably poorer substrate for peroxidase than is OPD; also recorded: higher Km-value at the same Vmax when compared with OPD”.
Turning to `CCn1c(=NN=c2sc3cc(S(=O)(=O)O)ccc3n2CC)sc2cc(S(=O)(=O)O)ccc21` [ABTS, 2,2-azino-di (3-ethyl-benzo thiazolin-6-sulphonic acid)], the “Mutagenicity (known)” value in series [2] is “mutagent”.
In the case of `Nc1ccccc1N` [OPD, o-phenylendiamine], in series [2], the “Carcinogenicity (known)” value was “carcinogenic” and the “Mutagenicity (known)” value was “mutagenic; also recorded: not a direct mutagen”. Further, the “Mutagenic properties (His+ mutants with increasing concentration)” value in series [3] is reported as “has mutagenic properties”. Further, in series [1], the Kkat is reported as 1.6 * 10^8 1*mol^−1*min^−1.
`Nc1ccc(C(=O)O)cc1` [PABA, p-amino benzoic acid]: the “Toxicity (generally considered)” value in series [2] is listed as “non-toxic”.
Consider `Nc1ccccc1` [aniline], for which the “Toxicity (generally considered)” value in series [2] is “very toxic”.
As to `CCOC(=O)c1ccc(N)c(N)c1` [ethyl ester, 3,4-diamino benzoic acid ethyl ester], the melting point (as a rule, the temperature of the solid-liquid transition) lay within 112 to 113 °C. Moreover, in series [1], the Kkat is recorded as 2.7 * 10^8 1*mol^−1*min^−1 and the “Properties as substrate” value is “significantly improved properties than 3,4-DABA; also recorded: very high Vmax”.
In the same order, the values of `CC(C)OC(=O)c1ccc(N)c(N)c1` [isopropyl ester, 3,4-diamino benzoic acid isopropyl ester] are 73 to 74 °C, 2.2 * 10^8 1*mol^−1*min^−1 and “significantly improved properties than 3,4-DABA”.
The compound `COC(=O)c1ccc(N)c(N)c1` [methyl ester, 3,4-diaminobenzoic acid methyl ester] returned a melting point of 108 to 109 °C. Moreover, in series [1], the Kkat is 2.2 * 10^8 1*mol^−1*min^−1 and the “Properties as substrate” value is on record as “significantly improved properties than 3,4-DABA”.
